In patent US20250215013A1, “SUBSTITUTED TRICYCLIC COMPOUNDS AS PARP INHIBITORS AND THE USE THEREOF” (IMPACT THERAPEUTICS (SHANGHAI), INC., priority 2022, published 2025):
pIC50: −log10 of the molar value.

What follows are molecules tested on MDA-MB-436 cells (assay: Growth inhibition assay against BRCA mutant human breast cancer MDA-MB-436 cell line (CCK-8)). Settings: Homo sapiens, MDA-MB-436, […], proliferation of MDA-MB-436 cells, 7 days.
Format: cell-based

Structure (SMILES)	pIC50
CNC(=O)c1ccc(C2CCN(Cc3ccc4c([nH]c(=O)c5c(C)cnn54)c3F)CC2)c(F)n1 [Example 124, 6-fluoro-7-((4-(2-fluoro-6-(methylcarbamoyl)pyridin-3-yl)piperidin-1-yl)methyl)-3-methylpyrazolo[1,5-a]quinoxalin-4(5H)-one]	7.59
CCNC(=O)c1ccc(N2CCN(Cc3ccc4c([nH]c(=O)c5c(C)cnn54)c3F)CC2)c(F)n1 [Example 125, 7-((4-(2-fluoro-6-(ethylcarbamoyl)pyridin-3-yl)piperazin-1-yl)methyl)-6-fluoro-3-methylpyrazolo[1,5-a]quinoxalin-4(5H)-one]	8.14
CNC(=O)c1ncc(N2CCN(Cc3ccc4c([nH]c(=O)c5c(C)cnn54)c3F)CC2)cc1F [Example 127, 7-((4-(5-fluoro-6-(methylcarbamoyl)pyridin-3-yl)piperazin-1-yl)methyl)-6-fluoro-3-methylpyrazolo[1,5-a]quinoxalin-4(5H)-one]	7.26
CNC(=O)c1ccc(N[C@@H]2CCN(Cc3ccc4c([nH]c(=O)c5c(C)cnn54)c3F)C2)cn1 [Example 134, (R)-6-fluoro-3-methyl-7-((3-((6-(methylcarbamoyl)pyridin-3-yl)amino)pyrrolidin-1-yl)methyl)pyrazolo[1,5-a]quinoxalin-4(5H)-one]	< 7.00
CNC(=O)c1ccc(N[C@@H]2CCN(Cc3ccc4c([nH]c(=O)c5c(C)cnn54)c3F)C2)c(F)n1 [Example 135, (R)-6-fluoro-7-((3-((2-fluoro-6-(methylcarbamoyl)pyridin-3-yl)amino)pyrrolidin-1-yl)methyl)-3-methylpyrazolo[1,5-a]quinoxalin-4(5H)-one]	< 7.00
CNC(=O)c1ccc(N2CCN(Cc3ccc4c(c3)[nH]c(=O)c3nocc34)CC2)c(F)n1 [Example 144, 7-((4-(2-fluoro-6-(methylcarbamoyl)pyridin-3-yl)piperazin-1-yl)methyl)isoxazolo[3,4-c]quinolin-4(5H)-one]	8.72
CNC(=O)c1ccc(N2CCN(Cc3ccc4c([nH]c(=O)c5cncn54)c3F)CC2)cn1 [Example 145, 7-((4-(6-(methylcarbamoyl)pyridin-3-yl)piperazin-1-yl)methyl)-6-fluoroimidazo[1,5-a]quinoxalin-4(5H)-one]	< 7.00
CNC(=O)c1ccc(N[C@@H]2CCN(Cc3ccc4c([nH]c(=O)c5occc54)c3F)C2)cn1 [Example 146, (R)-7-((3-((6-(methylcarbamoyl)pyridin-3-yl)amino)pyrrolidin-1-yl)methyl)-6-fluorofuro[2,3-c]quinolin-4(5H)-one]	< 7.00
CNC(=O)c1ccc(N2CCN(Cc3ccc4c([nH]c(=O)c5occc54)c3F)CC2)cn1 [Example 148, 6-fluoro-7-((4-(6-(methylcarbamoyl)pyridin-3-yl)piperazin-1-yl)methyl)furo[2,3-c]quinolin-4(5H)-one]	7.53
CNC(=O)c1ccc(N2CCN(Cc3ccc4c([nH]c(=O)c5cocc54)c3F)CC2)cn1 [Example 149, 6-fluoro-7-((4-(6-(methylcarbamoyl)pyridin-3-yl)piperazin-1-yl)methyl)furo[3,4-c]quinolin-4(5H)-one]	7.13
CNC(=O)c1ccc(N2CCN(Cc3ccc4c([nH]c(=O)c5ccoc54)c3F)CC2)cn1 [Example 150, 6-fluoro-7-((4-(6-(methylcarbamoyl)pyridin-3-yl)piperazin-1-yl)methyl)furo[3,2-c]quinolin-4(5H)-one]	7.94
CNC(=O)c1ccc(N2CCN(Cc3ccc4c([nH]c(=O)c5c(C)cnn54)c3F)CC2)cn1 [Example 153, 6-fluoro-3-methyl-7-((4-(6-(methylcarbamoyl)pyridin-3-yl)piperazin-1-yl)methyl)pyrazolo[1,5-a]quinoxalin-4(5H)-one]	7.63
CNC(=O)c1ccc(N2CCN(Cc3ccc4c([nH]c(=O)c5c(C)cnn54)c3F)CC2)c(F)c1 [Example 154, 6-fluoro-7-((4-(2-fluoro-4-(methylcarbamoyl)phenyl)piperazin-1-yl)methyl)-3-methylpyrazolo[1,5-a]quinoxalin-4(5H)-one]	7.02
CNC(=O)c1ccc(N2CCN(Cc3ccc4c([nH]c(=O)c5c(C)cnn54)c3F)CC2)c(Cl)c1 [Example 155, 6-fluoro-7-((4-(2-chloro-4-(methylcarbamoyl)phenyl)piperazin-1-yl)methyl)-3-methylpyrazolo[1,5-a]quinoxalin-4(5H)-one]	7.18

The next lines start with the values.

pIC50	Structure (SMILES)
8.22	Cc1cnn2c1c(=O)[nH]c1c(F)c(CN3CCN(c4ccc(C(=O)N[C@@H]5CCOC5)nc4F)CC3)ccc12 [Example 156, (R)-6-fluoro-7-((4-(2-fluoro-6-((tetrahydrofuran-3-yl)carbamoyl)pyridin-3-yl)piperazin-1-yl)methyl)-3-methylpyrazolo[1,5-a]quinoxalin-4(5H)-one]
7.37	CNc1nccc2cc(N3CCN(Cc4ccc5c([nH]c(=O)c6c(C)cnn65)c4F)CC3)cnc12 [Example 157, 6-fluoro-3-methyl-7-((4-(8-(methylamino)-1,7-naphthyridin-3-yl)piperazin-1-yl)methyl)pyrazolo[1,5-a]quinoxalin-4(5H)-one]
7.01	Cc1cnn2c1c(=O)[nH]c1c(F)c(CN3CCN(c4ccc(-c5ncc[nH]5)nc4)CC3)ccc12 [Example 158, 7-((4-(6-(1H-imidazol-2-yl)pyridin-3-yl)piperazin-1-yl)methyl)-6-fluoro-3-methylpyrazolo[1,5-a]quinoxalin-4(5H)-one]
< 7.00	CNC(=O)c1ccc(N2CCN(Cc3ccc4c([nH]c(=O)c5c(C)cnn54)c3F)CC2)c(C2CC2)n1 [Example 160, 7-((4-(2-cyclopropyl-6-(methylcarbamoyl)pyridin-3-yl)piperazin-1-yl)methyl)-6-fluoro-3-methylpyrazolo[1,5-a]quinoxalin-4(5H)-one]
< 7.00	CNC(=O)c1ccc(N2CCN(Cc3ccc4c([nH]c(=O)c5c(C)cnn54)c3F)CC2)cc1F [Example 161, 6-fluoro-7-((4-(3-fluoro-4-(methylcarbamoyl)phenyl)piperazin-1-yl)methyl)-3-methylpyrazolo[1,5-a]quinoxalin-4(5H)-one]
7.70	CNC(=O)c1ccc(N2CCN(Cc3ccc4c([nH]c(=O)c5c(C)cnn54)c3F)CC2)c(C)c1 [Example 162, 6-fluoro-7-((4-(2-methyl-4-(methylcarbamoyl)phenyl)piperazin-1-yl)methyl)-3-methylpyrazolo[1,5-a]quinoxalin-4(5H)-one]
7.15	Cc1cnn2c1c(=O)[nH]c1c(F)c(CN3CCN(c4ccc(C#N)nc4F)CC3)ccc12 [Example 164, 6-fluoro-7-((4-(2-fluoro-6-cyanopyridin-3-yl)piperazin-1-yl)methyl)-3-methylpyrazolo[1,5-a]quinoxalin-4(5H)-one]
7.69	CNC(=O)c1ccc(N2CCN(Cc3cc4[nH]c(=O)c5c(C)cnn5c4cc3F)CC2)c(C)n1 [Example 169, 8-fluoro-7-((4-(2-methyl-6-(methylcarbamoyl)pyridin-3-yl)piperazin-1-yl)methyl)-3-methylpyrazolo[1,5-a]quinoxalin-4(5H)-one]
7.73	CNC(=O)c1ccc(N2CCN(Cc3cc4[nH]c(=O)c5c(C)cnn5c4cc3F)CC2)c(Cl)n1 [Example 170, 8-fluoro-7-((4-(2-chloro-6-(methylcarbamoyl)pyridin-3-yl)piperazin-1-yl)methyl)-3-methylpyrazolo[1,5-a]quinoxalin-4(5H)-one]
7.84	CNC(=O)c1ccc(N2CCN(Cc3ccc4c([nH]c(=O)c5c(C)cnn54)c3C)CC2)c(F)n1 [Example 171, 7-((4-(2-fluoro-6-(methylcarbamoyl)pyridin-3-yl)piperazin-1-yl)methyl)-3,6-dimethylpyrazolo[1,5-a]quinoxalin-4(5H)-one]
7.37	CNC(=O)c1ccc(N2CCN(Cc3ccc4c([nH]c(=O)c5c(C)cnn54)c3C)CC2)c(C)n1 [Example 172, 7-((4-(2-methyl-6-(methylcarbamoyl)pyridin-3-yl)piperazin-1-yl)methyl)-3,6-dimethylpyrazolo[1,5-a]quinoxalin-4(5H)-one]
7.63	CNC(=O)c1ccc(N2CCN(Cc3ccc4c([nH]c(=O)c5c(C)cnn54)c3C)CC2)c(Cl)n1 [Example 173, 7-((4-(2-chloro-6-(methylcarbamoyl)pyridin-3-yl)piperazin-1-yl)methyl)-3,6-dimethylpyrazolo[1,5-a]quinoxalin-4(5H)-one]
7.33	CNC(=O)c1ccc(N2CCN(Cc3ccc4c([nH]c(=O)c5c(C)cnn54)c3Cl)CC2)c(F)n1 [Example 174, 6-chloro-7-((4-(2-fluoro-6-(methylcarbamoyl)pyridin-3-yl)piperazin-1-yl)methyl)-3-methylpyrazolo[1,5-a]quinoxalin-4(5H)-one]
< 7.00	CNC(=O)c1ccc(N2CCN(Cc3ccc4c([nH]c(=O)c5c(C)cnn54)c3Cl)CC2)c(C)n1 [Example 175, 6-chloro-7-((4-(2-methyl-6-(methylcarbamoyl)pyridin-3-yl)piperazin-1-yl)methyl)-3-methylpyrazolo[1,5-a]quinoxalin-4(5H)-one]
< 7.00	CNC(=O)c1ccc(N2CCN(Cc3ccc4c([nH]c(=O)c5c(C)cnn54)c3Cl)CC2)c(Cl)n1 [Example 176, 6-chloro-7-((4-(2-chloro-6-(methylcarbamoyl)pyridin-3-yl)piperazin-1-yl)methyl)-3-methylpyrazolo[1,5-a]quinoxalin-4(5H)-one]
7.40	CNC(=O)c1ccc(N2CCN(Cc3ccc4c([nH]c(=O)c5c(F)cnn54)c3Cl)CC2)c(C)n1 [Example 193, 3-fluoro-7-((4-(2-methyl-6-(methylcarbamoyl)pyridin-3-yl)piperazin-1-yl)methyl)-6-chloropyrazolo[1,5-a]quinoxalin-4(5H)-one]

Same assay, conditions: proliferation of MDA-MB-436 cells, 7 days

Structure (SMILES)	pIC50
CNC(=O)c1ccc(N2CCN(Cc3ccc4c([nH]c(=O)n5nccc45)c3F)CC2)c(C)n1 [Example 119, 8-((4-(2-methyl-6-(methylcarbamoyl)pyridin-3-yl)piperazin-1-yl)methyl)-7-fluoropyrazolo[1,5-c]quinazolin-5(6H)-one]	8.10
CNC(=O)c1ccc(N2CCN(Cc3ccc4c([nH]c(=O)c5c(F)cnn54)c3F)CC2)c(F)n1 [Example 188, 7-((4-(2-fluoro-6-(methylcarbamoyl)pyridin-3-yl)piperazin-1-yl)methyl)-3,6-difluoropyrazolo[1,5-a]quinoxalin-4(5H)-one]	8.28
